Patent US20100227806A1, “Use Of A Ghrelin Agonist To Improve Catabolic Effects Of Glucocorticoid Treatment” (priority 2006, published 2010)

Assays:
[1] = Effects of pharmacological treatments on plasma hormones and glucose concentrations; type: in vivo, Sprague-Dawley rats; conditions: day 47, mean ± SEM of eight animals; for Glucose: at sacrifice; for Corticosterone / IGF-1 / Insulin: plasma at sacrifice
Protocol: (§1) Thirty-two prepubertal male Sprague-Dawley rats approximately 21 days old and weighing between 45 and 55 grams, were obtained from Harlan, Italy (S. Pietro al Natisone, ITALY). During the study, the animals were maintained in accordance with the guidelines of the Italian Ministry of Health for the care and use of laboratory animals (Decreto legge 116/92). The animals were randomly divided into two treatment groups and kept in a controlled environment at a constant temperature of 21-23° C. with 12:12 light/dark exposure continuous period wherein the light exposure began at approximately 8:00 am and ended at approximately 8:00 pm. The animals were provided with water and food ad libitum consisting of an approximate 3200 calories/kg daily diet of standard pellet chow provided by Piccioni, Gessate-Milano, Italy (containing at least 19% protein, 3% fat and 56% carbohydrate).
(§2) Beginning on the 23rd day (i.e., the animals were 23 days old), 16 of the study animals were treated intraperitoneally (Ip) daily with 40 μg/kg of either saline or dexamethasone sodium phosphate (sold under the trademark Decadron® by Merck Pharmaceuticals, West Point, Pa.). Beginning on the 30th day (i.e., the animals were 30 days old), the subgroup of 16 studied animals was further divided into groups of 8 and treated subcutaneously three times daily (at approximately 9:00 am, 1:00 pm and 5:00 pm) with either 80 nmoles/kg of the preferred ghrelin analog [Aib^2, Glu^3(NH-hexyl)]hGhrelin(1-28)-NH2 (IPSEN, Milford, Mass.) dissolved in a sterile saline solution with 0.25% bovine serum albumin or vehicle (the saline-bovine serum albumin solution alone). This regimen continued for 24 days during which time the studied animals were weighed two times per week. At irregular intervals, the cumulative food intake for a 24-hour period of time was measured. Beginning on the 46th day (i.e., the animals were 46 days old), the length of the test and control animals from nose to anus was measured (hereinafter referred to as “the nose-anal length”). On the 47th day (i.e., the animals were 47 days old), all food was denied to the test subjects commencing at 8:00 am. Small samples of blood were taken via percutaneous puncture of the tail to assess blood glucose levels during the treatment period.
(§3) The test animals received two intravenous administrations of [Aib^2, Glu^3(NH-hexyl)]hGhrelin(1-28)-NH2 at approximately 9:00 am and 1:00 pm. The studied animals were sacrificed by rapid decapitation at approximately 2:00 pm, trunk blood collected for hormone level determinations, and the epididymal fat pads removed and weighed.
Samples of trunk blood were taken from the test subjects via […]. The blood samples were collected in tubes containing EDTA, separated by centrifugation, and stored at −20° C. Plasma insulin, IGF-1, and corticosterone levels were all measured using commercial RIA kits (Insulin and Corticosterone kits were both obtained from ICN-Biomedicals, Asse-Relegem, BELGIUM and the rIGF-1 test kit was obtained from Mediagnostic GMbH, Tubingen, GERMANY). Glucose concentration was determined using the Glucotrend® Soft Test System blood glucose meter (Roche Diagnostics, Barcelona, SPAIN).
(§4) Unless otherwise stated, the results reported in FIGS. 3-6 are expressed as the mean±SEM of eight replicate test subjects. Data was analyzed for statistical significance by one-way ANOVA which determines the variation (variance) within the groups and how that variation translates into variation (i.e. differences) between the groups, taking into account how many subjects there are in each group. […] The linear correlation analysis was performed either by Pearson's parametric test or by Spearman's nonparametric test. A P value below 0.05 was considered significant.

[2] = Effects of pharmacological treatments on growth parameters in dexamethasone-treated young rats; type: in vivo, Sprague-Dawley rats; conditions: for Final Body Weight: prepubertal male rats, dexamethasone 40 μg/kg ip daily from day 23, A 80 nmoles/kg sc three times daily from day 30; for Final Body Weight / Final Nose-Anal Length / Lee Obesity Index / Growth Rate / Epididymal Fat Pads: mean ± SEM of eight animals; for Final Nose-Anal Length / Lee Obesity Index / Growth Rate / Epididymal Fat Pads: same regimen; for Growth Rate: slope of growth curve; for Epididymal Fat Pads: weight at sacrifice
Protocol: as §1, §2, §3, §4

[3] = rat; cited from earlier work
[4] = 24-h food intake and food efficiency in treated young rats; type: in vivo, Sprague-Dawley rats
Description: FIG. 4. Panel A: the effect of the different pharmacological treatment on 24-h food intake expressed as a percent of the control value. Data represented the mean±SEM of nine determinations performed at irregular intervals from day 33 to day 47 after birth. Panel B: the effect of the different pharmacological treatments on food efficacy calculated as a ratio between food intake (g) and […] measured over the same time interval at different stages of growth. Data represents the meant SEM of eight rats. *P<0.05; **<0.01 vs SAL-treated rats (Dunnett's test). Panel C: the effect of the different pharmacological treatments on the cumulative food intake measured over the indicated time intervals at different stages of growth.
Beginning on the 23rd day (i.e., the animals were 23 days old), 16 of the study animals were treated intraperitoneally (Ip) daily with 40 μg/kg of either saline or dexamethasone sodium phosphate (sold under the trademark Decadron® by Merck Pharmaceuticals, West Point, Pa.). Beginning on the 30th day (i.e., the animals were 30 days old), the subgroup of 16 studied animals was further divided into groups of 8 and treated subcutaneously three times daily (at approximately 9:00 am, 1:00 pm and 5:00 pm) with either 80 nmoles/kg of the preferred ghrelin analog [Aib^2, Glu^3(NH-hexyl)]hGhrelin(1-28)-NH2 (IPSEN, Milford, Mass.) dissolved in a sterile saline solution with 0.25% bovine serum albumin or vehicle (the saline-bovine serum albumin solution alone). This regimen continued for 24 days during which time the studied animals were weighed two times per week. At irregular intervals, the cumulative food intake for a 24-hour period of time was measured. Beginning on the 46th day (i.e., the animals were 46 days old), the length of the test and control animals from nose to anus was measured (hereinafter referred to as “the nose-anal length”). […]
Food efficiency was calculated as the ratio between body weight gain (in grams) and food intake (in grams) measured over the same time interval.

| Compound | Glucose [1] [mg/dL] | Corticosterone [1] [ng/mL] | IGF-1 [1] [ng/mL] | Insulin [1] [μIU/ml] | Final Body Weight [2] [g] | Final Nose-Anal Length [2] [cm] | Lee Obesity Index [2] | Growth Rate [2] [g/day] | Epididymal Fat Pads [2] [g] | glucocorticoid-mediated GH-inhibition [3] | food efficiency (ratio body weight gain / food intake) vs saline treatment ([4]; FIG. 4B, two out of three determinations) | cumulative 24-hour food intake vs saline-treated animals ([4]; after 10 days from beginning of dexamethasone treatment, FIG. 4A) | decrease of food efficiency induced by dexamethasone ([4]; co-administration with dexamethasone, FIG. 4B) | growth suppression induced by DEX ([2]; concomitant treatment with DEX, FIG. 3) | somatic growth as compared to SAL-treated rats ([2]; young male rats, FIG. 3, Dunnett's t test) |
| --- | --- | --- | --- | --- | --- | --- | --- | --- | --- | --- | --- | --- | --- | --- | --- |
| C[C@@H]1C[C@H]2[C@@H]3CCC4=CC(=O)C=C[C@]4(C)[C@@]3(F)[C@@H](O)C[C@]2(C)[C@@]1(O)C(=O)CO [Dexamethasone, 9-fluoro-11β,17,21-trihydroxy-16a-methylpregna-1,4-diene-3,20-dione, reference compound] | 107 ± 6 | 19 ± 2 | 1257 ± 112 | 50 ± 6 | 185.2 ± 4.2 | 17.8 ± 0.2 | 321 ± 1.6 | 5.6 ± 0.2 | 1.14 ± 0.06 |  |  |  |  |  |  |
| GHRP-6 |  |  |  |  |  |  |  |  |  | able to completely counteract |  |  |  |  |  |
| [Aib^2, Glu^3(NH-hexyl)]hGhrelin(1-28)-NH2 | 122 ± 3 | 235 ± 23 | 1653 ± 87 | 40.4 ± 5.7 | 230.8 ± 4.8 | 19.3 ± 0.1 | 318 ± 1.4 | 7.6 ± 0.3 | 1.31 ± 0.07 |  | increased | increased | able to reverse | reversed | significantly increased |
